# Measured values from US7959951B2, “Nitric oxide and its biomedical significance” (The Research Foundation at State University of New York, priority 2002, dated 2011).
# Tested on: E. coli bacteria
# Assay: Inhibition of bacterial growth in LB broth culture
# Assay type: cell-based
# Conditions: One μg/ml in LB broth, 37° C, streaked on LB-agar
# Experimental: A dried, powdered, formulation of a 1:1 mixture of the wheat grass extract and white willow bark extract prepared in Example 1 above was tested for its ability to inhibit bacterial growth in culture. The formulation was reconstituted in 10 ml of LB broth (Amersham Biosciences, Inc.). The broth was then inoculated with E. coli bacteria and incubated for 5 and 24 hours at 37° C. 20 μl of the cultures were streaked on LB-agar plates and incubated overnight at 37° C. […] An additional control experiment was conducted with the known antibacterial agent, SNAP. One μg/ml SNAP was added to LB broth. The broth was then inoculated with E. coli bacteria and incubated for 5 and 24 hours at 37° C. 20 μl of the cultures were streaked on LB-agar plates and incubated overnight at 37° C. Bacterial growth was decreased in the SNAP culture at 5 and 24 hours, as compared to the control.
smiles,measurement,value
CC(=O)N[C@@H](C(=O)O)C(C)(C)SN=O (racemic) [SNAP],bacterial growth at 5 and 24 hours compared to control,decreased
